These results are taken from patent publication US11771715B2 (Orna Therapeutics, Inc., priority 2019, dated 2023).

In data set [1] the test system is 1C1C7 cells. Put plainly: 5′ UTR variants in 1C1C7 cells (Ex. 54). The format is cell-based. Conditions: CK IRES with 5′ UTR variants. An excerpt: This example describes modifications of circular RNAs by inserting 5′ UTR variants. […] 1C1C7 cells were transfected with the circular RNAs.
For data set [2] the following is noted: Table 3, representative compounds of Formula (III); cited from earlier work.
Data set [3] has as its system 1C1C7 cells. Kind of data set: Expression of anti-murine CD19 CAR by IRES variant in lipotransfected 1C1C7 cells (Ex. 41). The format is cell-based. Conditions: 24 hours after lipotransfection. The protocol: After 24 hours, 1C1C7 cells were incubated with His-tagged recombinant murine CD19 (Sino Biological) protein, then stained with a secondary anti-His antibody. Afterwards, the cells were analyzed via flow cytometry.

In another data set the test system is HEK293 cells. Put plainly: GLuc luminescence by IRES in HEK293 cells (Ex. 8A). As to conditions: 24 hours, 100 ng circularization reaction.
The subject of data set [4] is 1C1C7 cells. Kind of data set: GLuc luminescence and functional stability by IRES in 1C1C7 cells (Ex. 8A). Conditions: 24 hours.

For orientation: pKa means the negative logarithm of the acid dissociation constant.

Regarding “UTR2: 5′ UTR variant: canonical Kozak with "a 36-nucleotide unstructured/low GC spacer sequence" added (DNA AATAAGAGAGAAAAGAAGAGTAAGAAGAAATATAAGAGCCACC; expressed or natural sequence)”, the “translation, luminescence” value in the data set with 1C1C7 cells [1] is given as “more effective”.
“UTR3: 5′ UTR variant: "a higher-GC/structured spacer with a kozak sequence" (DNA CGAACTAGTATTCTTCTGGTCCCCACAGACTCAGAGAGAACCCGCCACC; expressed or natural sequence)”: in the data set with 1C1C7 cells [1], the “translation, luminescence” value is “did not show the same benefit”.
As for `CCCCCCCCCCCCC(CCCCCCCCCC)C(=O)OCCCCCCN(CCCCO)CCCCOC(=O)C(CCCCCCCCCC)CCCCCCCCCCCC` (stereo not drawn) [III-27], the pKa in data set [2] is on record as 5.77.

B1: parabovirus: "IRES sourced from the indicated virus" in circular RNA encoding anti-murine CD19 CAR (nucleic acid, listed as Parabovirus sp.)
DNA: TGAACCGTTACGCACCACTCAGTTGGTGTTTGGTGGCACCAATGATGGAACAAAAGGCTACACCACTTGGGCTACGGCCCGCGCCACCTTGTGGCGCAAAGACATTAGAAGAATAGCATACCGCCCACTAGGGCCCTGCAGCCAGCAGGGTAACGGGCAAGCACTTCTGTCTCCCCGGTAGAACGGTATAGGCTGTACCCACGGCCGAAAACTGAACTATCGTTACCCGACTCCGTACTTCGCAAAGCTTAGTAGGAAACTGGAAAGTTCGAGTTATTGACCCGGAGTGTTCCCCCCACTCCAGAAACGCGTGATGAGGGTTGCCACCCCGACCATGGCGACATGGTGGGCATCCCTGCGCTGGCACGCGGCCTCTAAGAGGATAACTCGCTCCTACTGGTAACCGAAGAGCCCCGTGAGCTACGGTTTATTCCTCCGCCTCCCTGAATGCGGCTAATCCTAACCCATGAGCAGTTGCCATAGATCCATATGGTGGACTGTCGTAACGCGTAAGTTGTGGGCGGAACCGACTACTTTGGGATGGCGTGTTTCCTTGTTTTCTCCATTTGTTGTTGTATGGTGACAAGTTATAGATCTCGATCTATAGCGTTTCTTGAGAGATTTCCAAACATTTATTCAAGTCGTACAATTCTTGTGTTTAAGCAGTACAGTGTAAGG
Consider B1, for which, in the data set with 1C1C7 cells [3], the “expression of anti-mouse CD19 CAR” value is recorded as “capable of driving expression”.

B2: Crohivirus B IRES: one of the "selected IRES sequences" modified (e.g., truncated); "SEQ ID NOs: 348-389" (nucleic acid)
DNA: GTATAAGAGACAGGTGTTTGCCTTGTCTTCGGACTGGCATCTTGGGACCAACCCCCCTTTTCCCCAGCCATGGGTTAAATGGCAATAAAGGACGTAACAACTTTGTAACCATTAAGCTTTGTAATTTTGTAACCACTAAGCTTTGTGCACATAATGTAACCATCAAGCTTGTTAGTCCCAGCAGGAGGTTTGCATGCTTGTAGCCGAAATGGGGCTCGACCCCCCATAGTAGGATACTTGATTTTGCATTCCATTGTGGACCTGCAAACTCTACACATAGAGGCTTTGTCTTGCATCTAAACACCTGAGTACAGTGTGTACCTAGACCCTATAGTACGGGAGGACCGTTTGTTTCCTCAATAACCCTACATAATAGGCTAGGTGGGCATGCCCAATTTGCAAGATCCCAGACTGGGGGTCGGTCTGGGCAGGGTTAGATCCCTGTTAGCTACTGCCTGATAGGGTGGTGCTCAACCATGTGTAGTTTAAATTGAGCTGTTCATATACC
modifications: Crohivirus B
As to B2, the luminescence in supernatant result with HEK293 cells is given as “produced the highest luminescence”.

B3: Salivirus A SZ-1 (nucleic acid)
DNA: TCTGTCCTCACCCCATCTTCCCTTCTTTCCTGCACCGTTACGCTTACTCGCATGTGCATTGAGTGGTGCACGTGCTTGAACAAACAGCTACACTCACATGGGGGCGGGTTTTCCCGCCCTGCGGCCTCTCGCGAGGCCCACCCCTCCCCTTCCTCCCATAACTACAGTGCTTTGGTAGGTAAGCATCCTGATCCCCCGCGGAAGCTGCTCACGTGGCAACTGTGGGGACCCAGACAGGTTATCAAAGGCACCCGGTCTTTCCGCCTTCAGGAGTATCCCTGCTAGTGAATTCTAGTAGGGCTCTGCTTGGTGCCAACCTCCCCCAAATGCGCGCTGCGGGAGTGCTCTTCCCCAACTCACCCTAGTATCCTCTCATGTGTGTGCTTGGTCAGCATATCTGAGACGATGTTCCGCTGTCCCAGACCAGTCCAGTAATGGACGGGCCAGTGTGCGTAGTCGTCTTCCGGCTTGTCCGGCGCATGTTTGGTGAACCGGTGGGGTAAGGTTGGTGTGCCCAACGCCCGTACTTTGGTGATACCTCAAGACCACCCAGGAATGCCAGGGAGGTACCCCGCTTCACAGCGGGATCTGACCCTGGGCTAATTGTCTACGGTGGTTCTTCTTGCTTCCACTTCTTTCTACTGTTCATG
For B3, the luminescence in supernatant result in the data set with 1C1C7 cells [4] is given as “produced high luminescence”.
